Reference: the supplement of paper PMC10307832

Columns and labels:
Assay in all cases: relative viability (nuclei count vs DMSO), 5 days (fraction); higher = more cells survive
NCI-H2347 = test system: NCI-H2347
Summary of the method: (§1)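 Relative viability equals treated-well nuclei counts divided by vehicle-well nuclei counts. Counts came from 4× images of lung cancer cell lines grown in 1536-well plates for 5 days after pin-tool dosing on the day after seeding. Dosing used one drug alone or a fixed anchor-drug dose plus five library-drug doses (not always all listed) in √10 steps, and values are medians of duplicate plates.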

HCC-44 = test system: HCC-44
Summary of the method: as §1

201T = test system: 201T
Summary of the method: as §1

NCI-H1650 = test system: NCI-H1650
Summary of the method: as §1

LK-2 = test system: LK-2
Summary of the method: as §1

NCI-H460 = test system: NCI-H460
Summary of the method: as §1

NCI-H838 = test system: NCI-H838
Summary of the method: as §1

PC-14 = test system: PC-14
Summary of the method: as §1

SW 1573 = test system: SW 1573
Summary of the method: as §1

NCI-H1793 = test system: NCI-H1793
Summary of the method: as §1

H3255 = test system: H3255
Summary of the method: as §1

NCI-H1944 = test system: NCI-H1944
Summary of the method: as §1

PC-3 [JPC-3] = test system: PC-3 [JPC-3]
Summary of the method: as §1

A-427 = test system: A-427
Summary of the method: as §1

LU99A = test system: LU99A
Summary of the method: as §1

COR-L23 = test system: COR-L23
Summary of the method: as §1

LCLC-97TM1 = test system: LCLC-97TM1
Summary of the method: as §1

NCI-H727 = test system: NCI-H727
Summary of the method: as §1

NCI-H23 = test system: NCI-H23
Summary of the method: as §1

Work on `NC(=O)Nc1cc(-c2cccc(F)c2)sc1C(=O)N[C@H]1CCCNC1` [AZD7762] + CC1(C)CCC(c2ccc(Cl)cc2)=C(CN2CCN(c3ccc(C(=O)NS(=O)(=O)c4ccc(N[C@H](CCN5CCOCC5)CSc5ccccc5)c(S(=O)(=O)C(F)(F)F)c4)cc3)CC2)C1 [Navitoclax] (partner 0.5 µM) yielded a relative viability (NCI-H2347; first compound 0.01 µM) of 0.829, a relative viability (NCI-H2347; first compound 0.03162 µM) of 0.934 and a relative viability (NCI-H2347; first compound 0.1 µM) of 0.935. It also gave a relative viability (NCI-H2347; first compound 0.3162 µM) of 0.991, a relative viability (NCI-H2347; first compound 1 µM) of 0.982 and a relative viability (HCC-44; first compound 0.01 µM) of 1.1. The relative viability (HCC-44; first compound 0.03162 µM) was 0.933, the relative viability (HCC-44; first compound 0.1 µM) was 1.01 and the relative viability (HCC-44; first compound 0.3162 µM) was 0.901. The relative viability (HCC-44; first compound 1 µM) was 1.01, the relative viability (201T; first compound 0.01 µM) was 1.18 and the relative viability (201T; first compound 0.03162 µM) was 1.23. For the same compound, the relative viability (201T; first compound 0.1 µM) was 1.21, the relative viability (201T; first compound 0.3162 µM) was 1.25 and the relative viability (201T; first compound 1 µM) was 1.27. The relative viability (NCI-H1650; first compound 0.01 µM) was 1.33, the relative viability (NCI-H1650; first compound 0.03162 µM) was 1.42 and the relative viability (NCI-H1650; first compound 0.1 µM) was 1.22. The relative viability (NCI-H1650; first compound 0.3162 µM) was 0.917, the relative viability (NCI-H1650; first compound 1 µM) was 0.327 and the relative viability (LK-2; first compound 0.01 µM) was 0.849. It also gave a relative viability (LK-2; first compound 0.03162 µM) of 0.822, a relative viability (LK-2; first compound 0.1 µM) of 0.838 and a relative viability (LK-2; first compound 0.3162 µM) of 0.756. The relative viability (LK-2; first compound 1 µM) was 0.607, the relative viability (NCI-H460; first compound 0.01 µM) was 1.25 and the relative viability (NCI-H460; first compound 0.03162 µM) was 1.15. The relative viability (NCI-H460; first compound 0.1 µM) was 1.11, the relative viability (NCI-H460; first compound 0.3162 µM) was 0.861 and the relative viability (NCI-H460; first compound 1 µM) was 0.0845. The relative viability (NCI-H838; first compound 0.01 µM) was 1.19, the relative viability (NCI-H838; first compound 0.03162 µM) was 1.15 and the relative viability (NCI-H838; first compound 0.1 µM) was 1.09. The relative viability (NCI-H838; first compound 0.3162 µM) was 1.03, the relative viability (NCI-H838; first compound 1 µM) was 0.576 and the relative viability (PC-14; first compound 0.01 µM) was 1.09. For the same compound, the relative viability (PC-14; first compound 0.03162 µM) was 1.02, the relative viability (PC-14; first compound 0.1 µM) was 1.02 and the relative viability (PC-14; first compound 0.3162 µM) was 0.895. It also gave a relative viability (PC-14; first compound 1 µM) of 0.512, a relative viability (SW 1573; first compound 0.01 µM) of 1.19 and a relative viability (SW 1573; first compound 0.03162 µM) of 1.12. For the same compound, the relative viability (SW 1573; first compound 0.1 µM) was 1.21, the relative viability (SW 1573; first compound 0.3162 µM) was 0.764 and the relative viability (SW 1573; first compound 1 µM) was 0.887. The relative viability (NCI-H1793; first compound 0.01 µM) was 0.437, the relative viability (NCI-H1793; first compound 0.03162 µM) was 0.645 and the relative viability (NCI-H1793; first compound 0.1 µM) was 0.476. It also gave a relative viability (NCI-H1793; first compound 0.3162 µM) of 0.368, a relative viability (NCI-H1793; first compound 1 µM) of 0.211 and a relative viability (H3255; first compound 0.01 µM) of 0.51. For the same compound, the relative viability (H3255; first compound 0.03162 µM) was 0.509, the relative viability (H3255; first compound 0.1 µM) was 0.526 and the relative viability (H3255; first compound 0.3162 µM) was 0.524. It also gave a relative viability (H3255; first compound 1 µM) of 0.448, a relative viability (NCI-H1944; first compound 0.01 µM) of 1.06 and a relative viability (NCI-H1944; first compound 0.03162 µM) of 1.14. For the same compound, the relative viability (NCI-H1944; first compound 0.1 µM) was 1.1, the relative viability (NCI-H1944; first compound 0.3162 µM) was 1.12 and the relative viability (NCI-H1944; first compound 1 µM) was 0.816. It also gave a relative viability (PC-3 [JPC-3]; first compound 0.01 µM) of 0.776, a relative viability (PC-3 [JPC-3]; first compound 0.03162 µM) of 0.824 and a relative viability (PC-3 [JPC-3]; first compound 0.1 µM) of 0.802. For the same compound, the relative viability (PC-3 [JPC-3]; first compound 0.3162 µM) was 0.847, the relative viability (PC-3 [JPC-3]; first compound 1 µM) was 0.823 and the relative viability (A-427; first compound 0.01 µM) was 0.951. It also gave a relative viability (A-427; first compound 0.03162 µM) of 0.948, a relative viability (A-427; first compound 0.1 µM) of 1.08 and a relative viability (A-427; first compound 0.3162 µM) of 1.04. For the same compound, the relative viability (A-427; first compound 1 µM) was 0.36, the relative viability (LU99A; first compound 0.01 µM) was 0.81 and the relative viability (LU99A; first compound 0.03162 µM) was 0.869. The relative viability (LU99A; first compound 0.1 µM) was 0.718, the relative viability (LU99A; first compound 0.3162 µM) was 0.665 and the relative viability (LU99A; first compound 1 µM) was 0.514. For the same compound, the relative viability (COR-L23; first compound 0.01 µM) was 1.28, the relative viability (COR-L23; first compound 0.03162 µM) was 1.01 and the relative viability (COR-L23; first compound 0.1 µM) was 1.01. The relative viability (COR-L23; first compound 0.3162 µM) was 0.891, the relative viability (COR-L23; first compound 1 µM) was 0.194 and the relative viability (LCLC-97TM1; first compound 0.01 µM) was 0.343. The relative viability (LCLC-97TM1; first compound 0.03162 µM) was 0.517, the relative viability (LCLC-97TM1; first compound 0.1 µM) was 0.51 and the relative viability (LCLC-97TM1; first compound 0.3162 µM) was 0.457. For the same compound, the relative viability (LCLC-97TM1; first compound 1 µM) was 0.237, the relative viability (NCI-H727; first compound 0.01 µM) was 0.456 and the relative viability (NCI-H727; first compound 0.03162 µM) was 0.54. For the same compound, the relative viability (NCI-H727; first compound 0.1 µM) was 0.397, the relative viability (NCI-H727; first compound 0.3162 µM) was 0.318 and the relative viability (NCI-H727; first compound 1 µM) was 0.111. It also gave a relative viability (NCI-H23; first compound 0.01 µM) of 0.983, a relative viability (NCI-H23; first compound 0.03162 µM) of 0.886 and a relative viability (NCI-H23; first compound 0.1 µM) of 0.905. For the same compound, the relative viability (NCI-H23; first compound 0.3162 µM) was 0.783 and the relative viability (NCI-H23; first compound 1 µM) was 0.464.
